pIC50: −log10 of the molar value. Structures can show the parent of a compound that is named as a salt.
molecular target: His-tagged recombinant human TrkA (Homo sapiens (Human), UniProt P04629); experiment: TrkA LanthaScreen Eu Kinase Binding Assay; conditions: averaged IC50; TR-FRET binding, 60 min, 22° C.; read-out: TrkA Enzyme IC50
In short: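 TR-FRET binding: 5 nM His-tagged human TrkA cytoplasmic domain with 4 nM Alexa-Fluor Tracer 236, 2 nM biotin anti-His and 2 nM Eu-streptavidin. Buffer was 25 mM MOPS pH 7.5, 5 mM MgCl2, 0.005% Triton X-100, 2% DMSO, 60 min at 22° C. IC50 from a four-parameter fit of ratiometric percent of control.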

His-tagged recombinant human TrkA, sequence (P04629 440-796): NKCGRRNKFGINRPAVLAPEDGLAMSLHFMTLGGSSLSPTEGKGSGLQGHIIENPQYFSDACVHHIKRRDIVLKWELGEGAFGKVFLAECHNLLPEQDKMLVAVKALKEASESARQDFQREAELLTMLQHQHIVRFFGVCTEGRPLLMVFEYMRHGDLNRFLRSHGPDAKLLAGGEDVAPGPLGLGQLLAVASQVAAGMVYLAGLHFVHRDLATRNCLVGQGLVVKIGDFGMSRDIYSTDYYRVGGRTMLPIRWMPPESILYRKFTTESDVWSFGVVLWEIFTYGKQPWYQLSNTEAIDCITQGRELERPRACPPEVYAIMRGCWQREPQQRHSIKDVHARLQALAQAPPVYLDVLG

SMILES | pIC50
CNC(=O)c1nn(-c2ccccc2)c(NC(=O)N[C@@H]2c3ccc(F)cc3C(C)(C)C[C@H]2O)c1C [Example 88, 5-(3-((1,2-trans)-6-fluoro-2-hydroxy-4,4-dimethyl-1,2,3,4-tetrahydronaphthalen-1-yl)ureido)-N,4-dimethyl-1-phenyl-1H-pyrazole-3-carboxamide] | > 7.00
Cc1c(-c2cnn(C)c2)nn(-c2ccccc2)c1NC(=O)N[C@@H]1c2ccc(F)cc2C(C)(C)C[C@H]1O [Example 89, 1-(1′,4-dimethyl-1-phenyl-1H,1′H-[3,4′-bipyrazol]-5-yl)-3-((1,2-trans)-6-fluoro-2-hydroxy-4,4-dimethyl-1,2,3,4-tetrahydronaphthalen-1-yl)urea] | > 7.00
Cc1c(-c2ccc(=O)n(C)c2)nn(-c2ccccc2)c1NC(=O)N[C@@H]1c2ccc(F)cc2C(C)(C)C[C@H]1O [Example 90] | > 7.00
CNC(=O)c1nn(-c2ccccc2)c(NC(=O)N[C@@H]2c3cc(F)ccc3C(C)(C)C[C@H]2O)c1C [Example 91, 5-(3-((1,2-trans)-7-fluoro-2-hydroxy-4,4-dimethyl-1,2,3,4-tetrahydronaphthalen-1-yl)ureido)-N,4-dimethyl-1-phenyl-1H-pyrazole-3-carboxamide] | > 7.00
Cc1c(-c2cnn(C)c2)nn(-c2ccccc2)c1NC(=O)N[C@@H]1c2cc(F)ccc2C(C)(C)C[C@H]1O [Example 92, 1-(1′,4-dimethyl-1-phenyl-1H,1′H-[3,4′-bipyrazol]-5-yl)-3-((1,2-trans)-7-fluoro-2-hydroxy-4,4-dimethyl-1,2,3,4-tetrahydronaphthalen-1-yl)urea] | > 7.00
Cc1c(-c2ccc(=O)n(C)c2)nn(-c2ccccc2)c1NC(=O)N[C@@H]1c2cc(F)ccc2C(C)(C)C[C@H]1O [Example 93, 1-((1,2-trans)-7-fluoro-2-hydroxy-4,4-dimethyl-1,2,3,4-tetrahydronaphthalen-1-yl)-3-(4-methyl-3-(1-methyl-6-oxo-1,6-dihydropyridin-3-yl)-1-phenyl-1H-pyrazol-5-yl)urea] | > 7.00
COCc1ccc2c(c1)C(NC(=O)Nc1c(C)c(=O)[nH]n1-c1ccccc1)CN(CC(F)(F)F)C2C (centres unmarked) [Example 96, 1-(6-(methoxymethyl)-1-methyl-2-(2,2,2-trifluoroethyl)-1,2,3,4-tetrahydroisoquinolin-4-yl)-3-(4-methyl-5-oxo-2-phenyl-2,5-dihydro-1H-pyrazol-3-yl)urea] | > 7.00
Cc1nn(-c2ccccc2)c(NC(=O)N[C@@H]2c3cc(CO)ccc3C(C)(C)C[C@H]2O)c1C [Example 100] | > 7.00
Cc1c(-c2cnn(C)c2)nn(-c2ccccc2)c1NC(=O)N[C@H]1CCCc2cc(F)ccc21 [Example 103, (S)-1-(1′,4-dimethyl-1-phenyl-1H,1′H-[3,4′-bipyrazol]-5-yl)-3-(6-fluoro-1,2,3,4-tetrahydronaphthalen-1-yl)urea] | > 7.00
COCc1ccc2c(c1)C(NC(=O)Nc1c(C)c(-c3cnn(C)c3)nn1-c1ccccc1)CN(CC(F)(F)F)C2C (centres unmarked) [Example 109, 1-(1′,4-dimethyl-1-phenyl-1H,1′H-[3,4′-bipyrazol]-5-yl)-3-(6-(methoxymethyl)-1-methyl-2-(2,2,2-trifluoroethyl)-1,2,3,4-tetrahydroisoquinolin-4-yl)urea] | > 7.00
COCc1ccc2c(c1)C(NC(=O)Nc1c(C)c(C(N)=O)nn1-c1ccccc1)CN(CC(F)(F)F)C2C (centres unmarked) [Example 110, 5-(3-(6-(methoxymethyl)-1-methyl-2-(2,2,2-trifluoroethyl)-1,2,3,4-tetrahydroisoquinolin-4-yl)ureido)-4-methyl-1-phenyl-1H-pyrazole-3-carboxamide] | > 7.00
COCc1ccc2c(c1)C(NC(=O)Nc1c(C)c(-c3cn(C)cn3)nn1-c1ccccc1)CN(CC(F)(F)F)C2C (centres unmarked) [Example 111, 1-(6-(methoxymethyl)-1-methyl-2-(2,2,2-trifluoroethyl)-1,2,3,4-tetrahydroisoquinolin-4-yl)-3-(4-methyl-3-(1-methyl-1H-imidazol-4-yl)-1-phenyl-1H-pyrazol-5-yl)urea] | > 7.00
Cc1c(-c2cnn(C)c2)nn(-c2ccccc2)c1NC(=O)NC1CCSc2ccc(Br)cc21 (centres unmarked) [Example 112, 1-(6-bromothiochroman-4-yl)-3-(1′,4-dimethyl-1-phenyl-1H,1′H-[3,4′-bipyrazol]-5-yl)urea] | > 7.00
Cc1c(-c2cnn(C)c2)nn(-c2ccccc2)c1NC(=O)NC1CCS(=O)(=O)c2ccc(Br)cc21 (centres unmarked) [Example 113, 1-(6-bromo-1,1-dioxidothiochroman-4-yl)-3-(1′,4-dimethyl-1-phenyl-1H,1′H-[3,4′-bipyrazol]-5-yl)urea] | 6.00 to 7.00
Cc1c(-c2cnn(C)c2)nn(-c2ccccc2)c1NC(=O)NC1CSCc2ccc(Br)cc21 (centres unmarked) [Example 114, 1-(6-bromoisothiochroman-4-yl)-3-(1′,4-dimethyl-1-phenyl-1H,1′H-[3,4′-bipyrazol]-5-yl)urea] | > 7.00
Cc1c(-c2cnn(C)c2)nn(-c2ccccc2)c1NC(=O)NC1CS(=O)(=O)Cc2ccc(Br)cc21 (centres unmarked) [Example 115, 1-(6-bromo-2,2-dioxidoisothiochroman-4-yl)-3-(1′,4-dimethyl-1-phenyl-1H,1′H-[3,4′-bipyrazol]-5-yl)urea] | > 7.00
Cc1c(-c2cnn(C)c2)nn(-c2ccccc2)c1NC(=O)NC1CN(CC(F)(F)F)C(=O)c2ccccc21 (centres unmarked) [Example 116, 1-(1′,4-dimethyl-1-phenyl-1H,1′H-[3,4′-bipyrazol]-5-yl)-3-(1-oxo-2-(2,2,2-trifluoroethyl)-1,2,3,4-tetrahydroisoquinolin-4-yl)urea] | > 7.00
Cc1ncc(-c2nn(-c3ccccc3)c(NC(=O)N[C@@H]3c4ccccc4C(C)(C)C[C@H]3O)c2C)cn1 [Example 117, 1-((1,2-trans)-2-hydroxy-4,4-dimethyl-1,2,3,4-tetrahydronaphthalen-1-yl)-3-(4-methyl-3-(2-methylpyrimidin-5-yl)-1-phenyl-1H-pyrazol-5-yl)urea] | > 7.00
CNC(=O)c1nn(-c2ccccc2)c(NC(=O)NC2CN(CC(F)(F)F)C(C)c3ccc(COC)cc32)c1C (centres unmarked) [Example 129, 5-(3-(6-(methoxymethyl)-1-methyl-2-(2,2,2-trifluoroethyl)-1,2,3,4-tetrahydroisoquinolin-4-yl)ureido)-N,4-dimethyl-1-phenyl-1H-pyrazole-3-carboxamide] | > 7.00
Cc1ncc(-c2nn(-c3ccccc3)c(NC(=O)NC3CN(CC(F)(F)F)C(=O)c4ccccc43)c2C)cn1 (centres unmarked) [Example 130, 1-(4-methyl-3-(2-methylpyrimidin-5-yl)-1-phenyl-1H-pyrazol-5-yl)-3-(1-oxo-2-(2,2,2-trifluoroethyl)-1,2,3,4-tetrahydroisoquinolin-4-yl)urea] | > 7.00
Cc1nn(-c2ccccc2)c(NC(=O)NC2CN(CC(F)(F)F)C(=O)c3ccccc32)c1C (centres unmarked) [Example 131, 1-(3,4-dimethyl-1-phenyl-1H-pyrazol-5-yl)-3-(1-oxo-2-(2,2,2-trifluoroethyl)-1,2,3,4-tetrahydroisoquinolin-4-yl)urea] | > 7.00
Cc1c(OC2CN3CCC2CC3)nn(-c2ccccc2)c1NC(=O)N[C@@H]1c2ccccc2C(C)(C)C[C@H]1O (stereo partly drawn) [Example 132, 1-((1R,2R)-2-hydroxy-4,4-dimethyl-1,2,3,4-tetrahydronaphthalen-1-yl)-3-(4-methyl-1-phenyl-3-(quinuclidin-3-yloxy)-1H-pyrazol-5-yl)urea] | > 7.00
Cc1c(OCCN2CCOCC2)nn(-c2ccccc2)c1NC(=O)N[C@@H]1c2ccccc2C(C)(C)C[C@H]1O [Example 133, 1-((1R,2R)-2-hydroxy-4,4-dimethyl-1,2,3,4-tetrahydronaphthalen-1-yl)-3-(4-methyl-3-(2-morpholinoethoxy)-1-phenyl-1H-pyrazol-5-yl)urea] | > 7.00
Cc1c(OCCN(C)C)nn(-c2ccccc2)c1NC(=O)N[C@@H]1c2ccccc2C(C)(C)C[C@H]1O [Example 134, 1-(3-(2-(dimethylamino)ethoxy)-4-methyl-1-phenyl-1H-pyrazol-5-yl)-3-((1R,2R)-2-hydroxy-4,4-dimethyl-1,2,3,4-tetrahydronaphthalen-1-yl)urea] | > 7.00
COc1nn(-c2ccccc2)c(NC(=O)N[C@@H]2c3ccccc3CC[C@@H]2O)c1C [Example 135, 1-((1R,2S)-2-hydroxy-1,2,3,4-tetrahydronaphthalen-1-yl)-3-(3-methoxy-4-methyl-1-phenyl-1H-pyrazol-5-yl)urea] | 5.52 to 6.00
Cc1c(-c2cnn(C)c2)nn(-c2ccccc2)c1NC(=O)NC1CN(CC(F)(F)F)C2(CC2)c2ccccc21 (centres unmarked) [Example 136, 1-(1′,4-dimethyl-1-phenyl-1H,1′H-[3,4′-bipyrazol]-5-yl)-3-(2′-(2,2,2-trifluoroethyl)-3′,4′-dihydro-2′H-spiro[cyclopropane-1,1′-isoquinolin]-4′-yl)urea trifluoroacetate] | > 7.00
Cc1c(-c2cnn(C)c2)nn(-c2ccccc2)c1NC(=O)N[C@@H]1c2ccccc2C2(CC2)[C@H]1O [Example 137, 1-(1′,4-dimethyl-1-phenyl-1H,1′H-[3,4′-bipyrazol]-5-yl)-3-((2′R,3′R)-2′-hydroxy-2′,3′-dihydrospiro[cyclopropane-1,1′-inden]-3′-yl)urea] | > 7.00
O=C(Nc1c(Cl)c(OC[C@H]2CNCCO2)nn1-c1ccccc1)N[C@@H]1c2ccccc2C2(CC2)[C@H]1O [Example 140, 1-(4-chloro-3-((R)-morpholin-2-ylmethoxy)-1-phenyl-1H-pyrazol-5-yl)-3-((2′R,3′R)-2′-hydroxy-2′,3′-dihydrospiro[cyclopropane-1,1′-inden]-3′-yl)urea] | > 7.00
CN1CCO[C@@H](COc2nn(-c3ccccc3)c(NC(=O)N[C@@H]3c4ccccc4C4(CC4)[C@H]3O)c2Cl)C1 [Example 141, 1-(4-chloro-3-(((R)-4-methylmorpholin-2-yl)methoxy)-1-phenyl-1H-pyrazol-5-yl)-3-((2′R,3′R)-2′-hydroxy-2′,3′-dihydrospiro[cyclopropane-1,1′-inden]-3′-yl)urea] | > 7.00

Reference: patent publication US10351575B2, “Bicyclic urea, thiourea, guanidine and cyanoguanidine compounds useful for the treatment of pain” (Array BioPharma Inc., priority 2012, dated 2019)
